According to US5098933A, “Pharmaceutically useful Michael addition products of unsaturated aldehydes and ketones and ascorbic acid” (Theracel Corporation, priority 1990, dated 1992):

Tests used:
[1] = system: CD-1 male mice; test: Oral Toxicity, single high dose in mice; format: in vivo; conditions: 5000 mg/kg p.o., 14 days
Experimental: The objective of this experiment was to observe the clinical effects associated with the peroral administration of a single high dose of KCPBL to mice.
The test animals were CD-1 male mice.
Nine animals constituted the active peroral treatment group; eight animals were used in the vehicle control group.
Each mouse received a single 0.2 ml peroral (p.o.) dose using a 1.0 cc syringe fitted with a curved gavage needle.
Survival statistics were determined after the fourteenth day. All surviving mice were sacrificed on the fifteenth day, selected organs removed and weighed on a AE 100 Mettler balance and then fixed in formalin for histopathologic examination.

[2] = system: splenocytes; test: Immunotoxicity--Multi-dose: total spleen cell counts (Coulter Counter); format: in vivo, mice
Experimental: The immunotoxicological potential of KCPBL was evaluated in this experiment in which the study drug was administered to CD-1 mice for fourteen days (100 or 1000 mg/kg/day), either perorally (by gavage) or intravenously (tail vein). On the fifteenth day, the mice were weighed and sacrificed. The spleen, lungs, liver, kidneys and thymus were removed from each animal, fixed in formalin and histopathologically evaluated. In addition, a differential white blood cell count was obtained for a peripheral blood sample as well as the following tests performed: spleen cell counts (performed with Coulter Counter) and lymphocyte stimulation assays using PHA, CON-A and PWM techniques.
The study incorporated five treatment groups into its design: group 1, sham intravenous control; group 2, 100 mg/kg/day perorally; group 3, 1000 mg/kg/day intravenously; group 4, […], and, group 5, 100 mg/kg/day intravenously. Mice were administered KCPBL daily for a total of fourteen days via the oral (0.2 ml of a 147.5 mg/ml solution or a 29.5 mg/ml solution by gavage) and intravenous route (0.2 ml of 147.5 mg/ml solution or a 29.5 mg/ml solution by tail vein) to achieve a dose of 100 or 1000 mg/kg, respectively. The test dose was prepared fresh daily and dissolved in sterile non-pyrogenic saline. On the fifteenth day the mice were weighed, sacrificed, and the spleens, lungs, livers, kidneys and thymuses removed. These organs were weighed and, except for the spleens, the formalin-fixed organs were analyzed by a veterinary pathologist. Only two randomly-selected sets of animal organs per treatment group were histopathologically evaluated since the remaining three animals were used to isolate splenic lymphocytes for use in cellular immunoassays.
A leukocyte differential was obtained on peripheral blood samples and spleen cell counts (performed with Coulter Counter), and an IL-2 induction assessment as well as standard lymphocyte stimulation assays using PHA, CON-A and PWM conducted.

[3] = system: interleukin-2; test: Immunomodulation panel: In vitro production of interleukin-2 (CTLL2 bioassay); format: in vivo, C57BL/6J mice
Excerpt: The bioassay uses the IL-2 growth-dependent cell line, CTLL2 as the indicator cell line to quantitate IL-2 in a biological fluid. The assay utilizes tritiated thymidine uptake by these cells as a measure of cellular proliferation. A reference standard obtained from the NCI Biological Response Modifiers Program is employed to construct a standard curve and to calculate Half Maximal Units (HMU) activity per ml. The assay was modified from one reported by Gillis et al. (J. Immunol. 120: 2927, 1978) and was recently reviewed as a clinical bioassay (Shalaby and Pallidino, In: Manual of Clinical Laboratory Immunology, 3rd Ed., p 300, American Society for Microbiology, Washington, D.C.).
2. Each sample is assayed in triplicate, over dilutions of 1/2, 1/4, 1/8, and 1/16 in a 96 well flat bottom plate. A totoal of eight (8) samples may be assayed in a single 96 well plate.
Analysis: Values are obtained from counter as counts per minute (cpm). The average of each triplicate sample dilution count is calculated. A standard curve of known half maximal units of the IL-2 standard dilution/cpm is constructed using a PC program for generation of the least squares line of best fit. IL-2 values are thus assessed for each sample based upon the standard curve and reported.
Daily intraperitoneal injections of KCPBL were administered to normal animals and immunological responsiveness to mitogens and specific antigen evaluated.
Doses and schedule--Doses were selected to bracket the range generally known to be immunostimulatory in past experiments, 1, 10, and […] daily for four days.
As an assessment of immunopathology in the above screening test panel, the cellularity of the spleen was evaluated by determination of the total number of splenocytes harvested. Humoral-mediated immunity was measured by enumerating IgM plaque-forming cells to the T-dependent antigen sheep erythrocytes. Cell-mediated immunity was evaluated as described above by determination of the ability of the splenocytes to produce the lymphokine interleukin-2 in response to stimulation by the mitogen concanavalin-A. Another measurement of cell-mediated immunity was the responsiveness of the splenic lymphocytes to the mitogens concanavalin-A (Con-A); phytohemagglutinin (PHA) and pokeweed mitogen (PWM) in the lymphocyte blastogenesis assay. In the latter test, the activation and proliferation of the lymphocytes to the mitogens represents the capability of the cells to sequentially pass from G0 to G1 and the S phse of the cell cycle. The responsiveness of the cells was measured by the uptake of radiolabeled 14C-thymidine.

O=C1CCC(C2(O)C(=O)OC3C(O)COC32O)C1 (centres unmarked) [KCPBL]
deaths [1]: One mouse in the KCPBL group died on the 12th day
deaths ([1]; listed as BL-012): Only one animal died
Total Splenocytes ([2]; 100 mg/kg IV (group 5)): 4.03 ± 0.33 × 10^7 Cells
Total Splenocytes ([2]; 100 mg/kg P.O. (group 4)): 4.15 ± 0.18 × 10^7 Cells
Total Splenocytes ([2]; 1000 mg/kg IV (group 3)): 3.12 ± 0.67 × 10^7 Cells
Total Splenocytes ([2]; 1000 mg/kg P.O. (group 2)): 3.73 ± 0.30 × 10^7 Cells
total spleen cell counts, significance ([2]; treated vs control): not statistically significantly different
IL-2 Half Maximal Units ([3]; 1.0 mg/kg i.p.): 4.48 ± 1.5 Half Maximal Units [10^6 Cells
IL-2 Half Maximal Units ([3]; 10 mg/kg i.p.): 4.33 ± 1.4 Half Maximal Units [10^6 Cells
IL-2 Half Maximal Units ([3]; 100 mg/kg i.p.): 4.14 ± 1.3 Half Maximal Units [10^6 Cells
IL-2 production vs controls ([3]; drug-treated animals): produced significantly more IL-2 than controls
